Experimental data taken from article PMC12156185, “Synthesis of Cyclic Hexapeptides via the Hydrazide Method and Evaluation of Their Antibacterial Activities” (Molecules, 2025).
Values after ≈ are worked out from the molar mass of the structure shown. Where a SMILES comes first, the peptide text is derived from it.

Key:
[1] = Head-to-tail amide via hydrazide-based intramolecular NCL: C-terminal peptide hydrazide + NaNO2 (10 eq, pH 3, -15 °C) to acyl azide, then MPAA (40 eq) thioester, pH 6.3-6.5 (Fig 2: 6.7-7), S-to-N acyl shift onto N-terminal Cys; TCEP work-up; conditions: the molecule shown is the open-chain precursor; 18-membered ring; 0.2 M sodium phosphate, 6 M guanidine HCl (aq); 0.75 mM; 25.0 °C
[2] = test system: Bacillus subtilis (BNCC 109047); assay type: cell-based
Protocol: (§1) The antimicrobial and antifungal activities of 11 cyclic hexapeptides (Cy-f1 to Cy-f11) were evaluated by determining their minimum inhibitory concentrations (MICs) against a panel of pathogens (Figure 4). These pathogens included Gram-negative bacteria (Escherichia coli, Klebsiella pneumoniae, Pseudomonas aeruginosa), Gram-positive bacteria (Staphylococcus aureus, Bacillus subtilis, Staphylococcus aureus [MRSA], […]), and fungi (Candida tropicalis, Cryptococcus neoformans).
(§2) The antibacterial activity of peptide analogs was tested against different bacterial strains, all purified cyclotides underwent antibacterial testing against Gram-positive bacterium Staphylococcus aureus (BNCC 186335), Bacillus subtilis (BNCC 109047), and Staphylococcus aureus (MRSA, BNCC 330041), Gram-negative bacteria, including Acinetobacter baumannii (BNCC 337173), Pseudomonas aeruginosa (BNCC 125486), and […]. Fungi included Candida parapsilosis (BNCC 336515) and Candida tropicalis (BNCC 340288). All the above strains are from the Henan Provincial Engineering Research Center of Industrial Microorganisms (Henan, China). Escherichia coli (ATCC 25922) and Klebsiella pneumoniae (CMCC(B) 46117) were sourced from Guangzhou HuanKai Microbial Technology Co., Ltd. (Guangzhou, China). The peptides’ MIC was determined using the Clinical and Laboratory Standards Institute broth dilution procedure with slight modifications.
(§3) Colonies of these bacterial strains were grown in respective agar media, then inoculated in Mueller Hinton (MH) broth and incubated at 37 °C overnight. The peptide solutions were first diluted 1 in 100 (from the stock solution at 20 mM) and then further two-fold dilution in MH broth in a sterile 96-well plate was performed, resulting in 100 µL of broth containing increasing concentrations. Bacteria in their exponential growth phase were diluted in MH broth, and 100 µL of this suspension was added in each well. […] Then, these plates were incubated at 37 °C for 20–22 h.
(§4) Each test was performed at least three times. MIC (minimum inhibitory concentration) values were determined as the concentrations of peptides that caused >99% inhibition of bacterial growth.

[3] = test system: Escherichia coli (ATCC 25922); assay type: cell-based
Protocol: as §1, §2, §3, §4

[4] = test system: Klebsiella pneumoniae (CMCC(B) 46117); assay type: cell-based
Protocol: as §1, §2, §3, §4

[5] = test system: Staphylococcus aureus (BNCC 186335); assay type: cell-based
Protocol: as §1, §2, §3, §4

[6] = test system: Cryptococcus neoformans (BNCC 225501); assay type: cell-based; conditions: BNCC 225501, 48 h
Protocol: as §1, §2, §4

[7] = test system: Candida tropicalis (BNCC 340288); assay type: cell-based; conditions: BNCC 340288, 24 h
Protocol: as §1, §2
Candida tropicalis was cultured on Sabourad Dextrose Agar (SDA). A single colony was inoculated in YM broth medium and grown overnight at 37 °C while shaking. Peptides were diluted in SDB media by two-fold dilution, resulting in 100 µL of medium containing increasing concentrations. The overnight culture (turbidity at OD600 = 1) was 1000× diluted in SDB. Then 100 µL of this suspension was added to each well, resulting in a final 200 µL suspension containing 2–4 × 10^5 CFU/mL. The plate was incubated at 37 °C for 24 h.
as §4

[8] = test system: Acinetobacter baumannii (BNCC 337173); assay type: cell-based
Protocol: as §1, §2, §3, §4

[9] = test system: Pseudomonas aeruginosa (BNCC 125486); assay type: cell-based
Protocol: as §1, §2, §3, §4

[10] = test system: Staphylococcus aureus (MRSA, BNCC 330041); assay type: cell-based
Protocol: as §1, §2, §3, §4

Compound | ring closure, product found (1=cyclised, 0=failed) [1] | MIC against E. coli [3] [µM] | MIC against S. aureus [5] [µM] | MIC against C. neoformans [6] [µM] | MIC against C. tropicalis [7] [µM] | MIC against P. aeruginosa [9] [µM] | further results
CC[C@H](C)[C@H](NC(=O)[C@H](CCCCN)NC(=O)[C@H](CC(C)C)NC(=O)[C@H](CCCCN)NC(=O)[C@@H](N)CS)C(=O)N[C@@H](Cc1ccccc1)C(=O)NN [H-Cys-Lys-Leu-Lys-Ile-Phe-NHNH2] | 1 |  |  |  |  |  | 
CC[C@H](C)[C@@H]1NC(=O)[C@H](CCCNC(=N)N)NC(=O)[C@H](CS)NC(=O)[C@H](CCCNC(=N)N)NC(=O)[C@H](C(C)C)NC(=O)[C@H](C(C)C)NC1=O [Cy-f8] (cyclo(CRIVVR)) |  | 16 (≈ 11.6 µg/mL) | 8 (≈ 5.82 µg/mL) | 32 (≈ 23.3 µg/mL) | 16 (≈ 11.6 µg/mL) |  | MIC against B. subtilis [2]: 8 µM (≈ 5.82 µg/mL); MIC against K. pneumoniae [4]: 32 µM (≈ 23.3 µg/mL)
CC[C@H](C)[C@H](NC(=O)[C@@H]1CCCN1C(=O)[C@H](CCCCN)NC(=O)[C@H](CCCNC(=N)N)NC(=O)[C@@H](N)CS)C(=O)N[C@H](C(=O)NN)C(C)C [H-Cys-Arg-Lys-Pro-Ile-Val-NHNH2] | 1 |  |  |  |  |  | 
CC(C)C[C@H](NC(=O)[C@@H](NC(=O)[C@@H]1CCCN1C(=O)[C@H](CCCCN)NC(=O)[C@H](CCCNC(=N)N)NC(=O)[C@@H](N)CS)C(C)C)C(=O)NN [H-Cys-Arg-Lys-Pro-Val-Leu-NHNH2] | 1 |  |  |  |  |  | 
CC[C@H](C)[C@@H]1NC(=O)[C@H](CCCCN)NC(=O)[C@H](CC(C)C)NC(=O)[C@H](CCCCN)NC(=O)[C@H](CS)NC(=O)[C@H](Cc2ccccc2)NC1=O [Cy-f3] (cyclo(CKLKIF)) |  | 64 (≈ 46.9 µg/mL) | 16 (≈ 11.7 µg/mL) | 8 (≈ 5.86 µg/mL) | 32 (≈ 23.5 µg/mL) | 128 (≈ 93.8 µg/mL) | MIC against A. baumannii [8]: 128 µM (≈ 93.8 µg/mL); MIC against B. subtilis [2]: 32 µM (≈ 23.5 µg/mL); MIC against K. pneumoniae [4]: 64 µM (≈ 46.9 µg/mL); MIC against MRSA [10]: 32 µM (≈ 23.5 µg/mL)
CC[C@H](C)[C@H](NC(=O)[C@H](CCCNC(=N)N)NC(=O)[C@@H](N)CS)C(=O)N[C@H](C(=O)N[C@H](C(=O)N[C@@H](CCCNC(=N)N)C(=O)NN)C(C)C)C(C)C [H-Cys-Arg-Ile-Val-Val-Arg-NHNH2] | 1 |  |  |  |  |  | 
CC[C@H](C)[C@@H]1NC(=O)[C@H]([C@@H](C)CC)NC(=O)[C@@H]2CCCN2C(=O)[C@H](CCCCN)NC(=O)[C@H](CCCNC(=N)N)NC(=O)[C@H](CS)NC1=O [Cy-f5] (cyclo(CRKPII)) |  | 128 (≈ 91 µg/mL) | 16 (≈ 11.4 µg/mL) | 32 (≈ 22.8 µg/mL) | 64 (≈ 45.5 µg/mL) | 128 (≈ 91 µg/mL) | 
CC[C@H](C)[C@H](NC(=O)[C@@H](N)CS)C(=O)N[C@@H](CCCNC(=N)N)C(=O)N1CCC[C@H]1C(=O)N[C@H](C(=O)N[C@@H](CC(C)C)C(=O)NN)[C@@H](C)CC [H-Cys-Ile-Arg-Pro-Ile-Leu-NHNH2] | 1 |  |  |  |  |  | 
CC[C@H](C)[C@H](NC(=O)[C@H](CCCCN)NC(=O)[C@H](CC(C)C)NC(=O)[C@H](CCCNC(=N)N)NC(=O)[C@@H](N)CS)C(=O)N[C@@H](Cc1ccccc1)C(=O)NN [H-Cys-Arg-Leu-Lys-Ile-Phe-NHNH2] | 1 |  |  |  |  |  | 
CC[C@H](C)[C@@H]1NC(=O)[C@H](CS)NC(=O)[C@H](CC(C)C)NC(=O)[C@H]([C@@H](C)CC)NC(=O)[C@@H]2CCCN2C(=O)[C@H](CCCNC(=N)N)NC1=O [Cy-f9] (cyclo(CIRPIL)) |  | > 200 | > 200 | > 200 | > 200 | > 200 | MIC against A. baumannii [8]: > 200 µM; MIC against B. subtilis [2]: > 200 µM; MIC against K. pneumoniae [4]: > 200 µM; MIC against MRSA [10]: > 200 µM
CC[C@H](C)[C@H](NC(=O)[C@@H](NC(=O)[C@@H]1CCCN1C(=O)[C@H](CCCNC(=N)N)NC(=O)[C@@H](NC(=O)[C@@H](N)CS)[C@@H](C)CC)[C@@H](C)CC)C(=O)NN [H-Cys-Ile-Arg-Pro-Ile-Ile-NHNH2] | 1 |  |  |  |  |  | 
CC(C)C[C@@H]1NC(=O)[C@H](C(C)C)NC(=O)[C@@H]2CCCN2C(=O)[C@H](CCCCN)NC(=O)[C@H](CCCNC(=N)N)NC(=O)[C@H](CS)NC1=O [Cy-f7] (cyclo(CRKPVL)) |  | 128 (≈ 89.2 µg/mL) | 32 (≈ 22.3 µg/mL) | 16 (≈ 11.2 µg/mL) | 32 (≈ 22.3 µg/mL) | 128 (≈ 89.2 µg/mL) | 
CC[C@H](C)[C@@H]1NC(=O)[C@@H]2CCCN2C(=O)[C@H](CCCCN)NC(=O)[C@H](CCCNC(=N)N)NC(=O)[C@H](CS)NC(=O)[C@H](C(C)C)NC1=O [Cy-f6] (cyclo(CRKPIV)) |  | > 200 | > 200 | > 200 | > 200 | > 200 | MIC against A. baumannii [8]: > 200 µM; MIC against B. subtilis [2]: > 200 µM; MIC against K. pneumoniae [4]: > 200 µM; MIC against MRSA [10]: > 200 µM
CC[C@H](C)[C@H](NC(=O)[C@@H](NC(=O)[C@H](CCCNC(=N)N)NC(=O)[C@@H](N)CS)C(C)C)C(=O)N[C@H](C(=O)N[C@@H](CCCNC(=N)N)C(=O)NN)[C@@H](C)CC [H-Cys-Arg-Val-Ile-Ile-Arg-NHNH2] | 1 |  |  |  |  |  | 
CC[C@H](C)[C@H](NC(=O)[C@H](CCCCN)NC(=O)[C@H](CC(C)C)NC(=O)[C@H](CC(C)C)NC(=O)[C@@H](N)CS)C(=O)N[C@@H](Cc1ccccc1)C(=O)NN [H-Cys-Leu-Leu-Lys-Ile-Phe-NHNH2] | 1 |  |  |  |  |  | 
CC[C@H](C)[C@@H]1NC(=O)[C@H](C(C)C)NC(=O)[C@H](CCCNC(=N)N)NC(=O)[C@H](CS)NC(=O)[C@H](CCCNC(=N)N)NC(=O)[C@H]([C@@H](C)CC)NC1=O [Cy-f10] (cyclo(CRVIIR)) |  |  | 8 (≈ 5.93 µg/mL) | 16 (≈ 11.9 µg/mL) | 128 (≈ 94.8 µg/mL) | 128 (≈ 94.8 µg/mL) | 
CC[C@H](C)[C@H](NC(=O)[C@@H](NC(=O)[C@@H]1CCCN1C(=O)[C@H](CCCCN)NC(=O)[C@H](CCCNC(=N)N)NC(=O)[C@@H](N)CS)[C@@H](C)CC)C(=O)NN [H-Cys-Arg-Lys-Pro-Ile-Ile-NHNH2] | 1 |  |  |  |  |  | 
CC(C)C[C@H](NC(=O)[C@H](CCCCN)NC(=O)[C@@H](N)CS)C(=O)N[C@@H](CCCNC(=N)N)C(=O)N[C@@H](Cc1c[nH]c2ccccc12)C(=O)N[C@@H](Cc1ccccc1)C(=O)NN [H-Cys-Lys-Leu-Arg-Trp-Phe-NHNH2] | 1 |  |  |  |  |  | 
